Laboratory results from US11814652B2, “Pluripotent stem cell differentiation-promoting agent” (Oriental Yeast Co., Ltd., priority 2018, dated 2023).

Experiments:
Format in all cases: cell-based
[1] = system: Human adipose tissue-derived mesenchymal stem cells; assay: qPCR of PPARγ and adiponectin genes after adipocyte differentiation-induction of mesenchymal stem cells grown with β-NMN (Example 9); settings: GAPDH internal standard, 0.1 mM or 0.25 mM of β-NMN, 0 mM defined as 1, 14th day of adipocyte differentiation-induction
Text: The effects of culturing in the presence of β-NMN before adipocyte differentiation-induction of mesenchymal stern cells were examined. In the same manner as in Example 8, Human adipose tissue-derived mesenchymal stem cells (manufactured by Lonza, Cat #PT5006) were used as the mesenchymal stem cells. As a growth culture medium, a culture medium prepared by appropriately adding β-MNM to “MSCGM Bullet Kit” (manufactured by Lonza, Cat #PT3001) was used as in Example 8. As an adipocyte differentiation-inducing culture medium, a culture medium prepared by adjusting a DMEM-High Glucose medium to have a final concentration of fetal bovine serum of 10% by volume, a final concentration of IBMX of 0.5 mM, a final concentration of dexamethasone of 1 μM, a final concentration of indomethacin of 200 μM, and a final concentration of penicillin-streptomycin of 0.1% was used. The culture of the mesenchymal stem cells before differentiation-induction was performed in the same manner as in Example 8. The differentiation induction was performed in the same manner as in Example 8 except that the adipocyte differentiation-inducing culture medium was used instead of the bone differentiation-inducing culture medium. […] The relative expression level of each gene was determined from the results of qPCR of cells that were induced to differentiate into adipocytes. […]

[2] = system: iPS cells 253G1 strain; assay: Cell number in endodermal differentiation-induction after undifferentiated culture with β-NMN (Example 5); settings: β-NMN 0.25 or 1 mM in culture medium for iPS cells before endodermal differentiation-induction; 7th day after seeding; versus no β-NMN
Procedure: The effects of culturing in the presence of β-NMN before induction of differentiation on the endodermal differentiation-induction of iPS cells was examined. As the iPS cells, the 253G1 strain was used. iPS cells seeded on a culture dish coated with Matrigel (manufactured by Corning Incorporated) according to the manufacturer's protocol were cultured in a culture medium prepared by adjusting a culture medium for iPS cells to have a final concentration of β-NMN 0, 0.25 or 1 mM, and a final concentration of Rock inhibitor of 10 μM for 1 day. From the 1st day after seeding, the culture medium was replaced every day with a culture medium obtained by removing the Rock inhibitor from the culture medium at the time of seeding. When the confluent reached 70 to 80%, the iPS cells were detached from the culture dish and collected. The collected iPS cells were seeded at 3×10^5 cells/well in a 24-well plate coated with Matrigel (manufactured by Corning Incorporated) according to the manufacturer's protocol. The cells in the 24-well plate were cultured for 1 day in a culture medium prepared by removing β-NMN from the culture medium when culturing in the culture dish and adjusting to have a final concentration of Rock inhibitor of 10 μM. […] Cells on the 7th day after seeding were sampled and the numbers of cells were counted.

[3] = system: iPS cells 253G1 strain; assay: Cell number during endodermal differentiation-induction in medium with β-NMN (Example 4); settings: endodermal differentiation-inducing medium containing β-NMN 0.1, 0.25 or 1 mM; 7th day after seeding; versus medium not containing β-NMN
Procedure: The effects of β-NMN on the induction of endodermal differentiation of iPS cells were examined. As the iPS cells, the 253G1 strain was used. The iPS cells were seeded in a 24-well plate coated with Matrigel (manufactured by Corning Incorporated) according to the manufacturer's protocol at 3×10^5 cells/well. The cells in the 24-well plate were cultured in a culture medium for iPS cells adjusted to have a final concentration of Rock inhibitor of 10 μM for 1 day. From the 1st day after seeding, the culture medium was replaced with a culture medium prepared by adjusting an endoderm differentiation-inducing culture medium of “STEMdiff Trilineage Differentiation kit” (manufactured by STEMCELL Technologies) to have a final concentration of β-NMN of 0, 0.1, 0.25, or 1 mM for 1 day. The culture medium was replaced with a culture medium prepared by adjusting an endodermal differentiation-inducing culture medium to have final concentrations of both β-NMN and Rock inhibitor of 10 μM only on the 1st day after seeding. Cells of the 7th day after seeding were sampled and the cell numbers were counted. As a result, the number of the cells cultured in the endodermal differentiation-inducing culture medium containing β-NMN was larger than the number of the cells cultured in the medium not containing β-NMN.

Compound: NC(=O)c1ccc[n+]([C@@H]2O[C@H](COP(=O)([O-])O)[C@@H](O)[C@H]2O)c1 [β-NMN, β-nicotinamide mononucleotide]
- relative expression level of the PPARγ gene [1]: increase
- relative expression level of the adiponectin gene [1]: increase
- cell number [2]: no clear difference
- number of the cells [3]: larger
